Reference: publication PMC5681660, “Reduced hepatitis B and D viral entry using clinically applied drugs as novel inhibitors of the bile acid transporter NTCP” (Scientific Reports, 2017)
Structures can show the parent of a compound that is named as a salt.

Molecular target: T1, human NTCP (Homo sapiens, UniProt Q14973)
T1 sequence (Q14973 1-349): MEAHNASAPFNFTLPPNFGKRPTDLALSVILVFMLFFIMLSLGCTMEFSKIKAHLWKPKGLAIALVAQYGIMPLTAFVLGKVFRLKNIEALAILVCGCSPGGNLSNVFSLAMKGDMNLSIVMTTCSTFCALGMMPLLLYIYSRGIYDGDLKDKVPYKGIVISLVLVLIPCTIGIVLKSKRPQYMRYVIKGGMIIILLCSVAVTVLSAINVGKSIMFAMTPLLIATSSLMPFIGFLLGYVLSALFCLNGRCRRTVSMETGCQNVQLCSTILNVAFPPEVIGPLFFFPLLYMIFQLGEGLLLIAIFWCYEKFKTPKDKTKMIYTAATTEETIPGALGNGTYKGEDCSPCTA
Assay: Screening taurocholate uptake assay (96-well, [14C]taurocholate, 10 µM drug)
Settings: for B-score functional assay: screening taurocholate uptake, 10 µM drug

[1] = combined ranking of functional and binding screening assays
[2] = ranking over the functional and the binding screening assay

| SMILES | Ranking score [1] | B-score functional assay | Ranking score [2] | B-score functional assay (B-score) |
| --- | --- | --- | --- | --- |
| CC(C)NCC(O)c1cc(O)cc(O)c1.CC(C)NCC(O)c1cc(O)cc(O)c1.O=S(=O)(O)O (stereo not shown) | 489.878 | 0.057 | – | – |
| Cl.Cl.c1ccc2c(c1)CCCc1cc(NCCN3CCOCC3)nnc1-2 | – | -1.983 | 77.0714 | – |
| CC=CC(=O)N(CC)c1ccccc1C (mixture of isomers) [Crotamiton] | – | -0.004 | 248.379 | – |
| C#C[C@]1(OC(C)=O)CC[C@H]2[C@@H]3CCC4=CC(=NO)CC[C@@H]4[C@H]3CC[C@@]21CC (mixture of isomers) [Norgestimate] | – | -2.463 | 95.4987 | – |
| CNCC(O)c1ccc(O)cc1 (racemic) [(+,-)-Synephrine] | 485.351 | -0.397 | – | – |
| CN(Cc1cnc2nc(N)nc(N)c2n1)c1ccc(C(=O)N[C@@H](CCC(=O)O)C(=O)O)cc1 (racemic) [Amethopterin (R,S)] | 579.365 | -0.795 | – | – |
| Nc1c2c(nc3ccccc13)CCCC2O.O=C(O)/C=C\C(=O)O (racemic) [Hydroxytacrine maleate (R,S)] | – | 2.059 | 180.3 | – |
| CC(=O)NC1CCSC1=O (racemic) [N-Acetyl-DL-homocysteine Thiolactone] | 563.625 | 0.096 | – | – |
| O=C1c2cccc(O)c2C(=O)c2c(O)cccc21 [1,8-Dihydroxyanthraquinone] | 1173.42 | – | – | 1.277 |
| Nc1ccccc1S(N)(=O)=O [2-Aminobenzenesulfonamide] | 626.378 | -0.592 | – | – |
| CC(C)(C)NC[C@@H](O)COc1cccc2c1CCCC2=O.Cl [(+) -Levobunolol hydrochloride] | 464.377 | -1.002 | – | – |
| CC(C)NC[C@H](O)COc1cccc2ccccc12 [(S)-propranolol hydrochloride] | 599.166 | -0.168 | – | – |
| Nc1nc(NC2CC2)c2ncn([C@H]3C=C[C@@H](CO)C3)c2n1 [Abacavir Sulfate] | 1184.97 | – | – | 2.371 |
| CC(=O)NCCCS(=O)(=O)O [Acamprosate calcium] | – | -0.535 | 126.206 | – |
| CC(=O)OC1CN2CCC1CC2 (stereo not shown) [Aceclidine Hydrochloride] | – | -1.773 | 189.214 | – |
| CC(=O)N[C@@H](CS)C(=O)O [Acetylcysteine] | 542.19 | -1.045 | – | – |
| CC(=O)Oc1ccccc1C(=O)O [Acetylsalicylic acid] | 1161.38 | – | – | 2.017 |
| COc1ccc(-c2ccc3cc(C(=O)O)ccc3c2)cc1C12CC3CC(CC(C3)C1)C2 [Adapalene] | 620.435 | 0.202 | – | – |
| CCC(=O)OCC(=O)[C@@]1(OC(=O)CC)[C@H](C)C[C@H]2[C@H]3[C@H]([C@@H](O)C[C@@]21C)[C@@]1(C)C=CC(=O)C=C1C[C@H]3Cl [Alclometasone dipropionate] | – | -2.188 | 175.417 | – |
| CCCCC(CC)CNC(=N)NC(=N)NCCCCCCNC(=N)NC(=N)NCC(CC)CCCC (stereo not shown) [Alexidine dihydrochloride] | – | -9.197 | 6.481 | – |
| C=C1/C(=C\C=C2/CCC[C@]3(C)[C@@H]([C@H](C)CCCC(C)C)CC[C@@H]23)C[C@@H](O)C[C@@H]1O [Alfacalcidol] | 594.47 | -0.117 | – | – |
| COc1cc2nc(N(C)CCCNC(=O)C3CCCO3)nc(N)c2cc1OC (stereo not shown) [Alfuzosin hydrochloride] | – | -2.737 | 237.095 | – |
| CC(=O)[C@@]12O[C@](C)(c3ccccc3)O[C@@H]1C[C@H]1[C@@H]3CCC4=CC(=O)CC[C@]4(C)[C@H]3CC[C@@]12C [Algestone acetophenide] | – | -2.799 | 142.566 | – |
